Measurements taken from patent US7173063B1, “Topoisomerase poisons for the treatment of proliferative disorders” (Fred Hutchinson Cancer Research Center, priority 2000, dated 2007).

How the values were obtained:
[1] = system: yeast Topo I; test: Toxicity in yeast overexpressing yeast Topo I (yTOP1) or ytop1-vac mutant; format: cell-based
Description: (§1) The strains are derived from the A364a genetic background, with the exception of BY4705, which is derived from the S288C background. Gene disruptions were generated by PCR fragment directed replacement (Baudin, et al., Nucleic Acids Research 21: 3329–30 (1993), Guldener, et al., Nucleic Acids Research 24: 2519–24 (1996)). Yeast overexpressing topoisomerase II was constructed by a PCR fragment directed promoter replacement of the topoisomerase II promoter with the yeast GPD promoter flanked upstream by the URA3 marker. All strains (except BY4705) bear the pleitropic drug sensitizing mutations erg6, pdr1, and pdr3 (Balzi, et al., Journal of Bioenergetics & Biomembranes 27: 71–6 (1995), Delaveau, et al, Molecular & General Genetics 244: 501–11 (1994), Gaber, et al., Molecular & Cellular Biology 9: 3447–56 (1989), Saunders, et al., Canadian Journal of Genetics & Cytology, 24: 493–503 (1982). Subik, et al, Current Genetics 10: 665–70 (1986)). The haploid yeast strain BY4705 (Brachmann, et al., Yeast 14: 115–32 (1998)) was used in the experiments described in FIG. 5. Plasmids expressing yeast or human topoisomerase I genes under the GAL promoter (Knab, et al., Journal of Biological Chemistry 268: 22322–30 (1993). Knab, et al., Journal of Biological Chemistry 270: 6141–8 (1995)) were transformed into BY4705 using standard procedures.
(§2) Yeast toxicity assays were performed essentially as follows: Exponentially growing cultures of the appropriate strains were diluted in synthetic complete media to a concentration of 7.4×10^4 cells/mL, and aliquots (135 μL) were transferred to each well of clear flat-bottomed 96 well plates. Compounds were added in duplicate or triplicate as 15 μL of the appropriate dilution in 5% DMSO. A 15 μL portion of 5% DMSO was added to control wells. […] Cell growth (OD660) in treated wells was plotted as a percentage of the growth in at least four averaged solvent control wells for the same strain. Camptothecin sodium salt (camptothecin Na) was the agent used in all yeast assays as standard.
(§3) In this regard, the sensitivity of yeast strains overexpressing either human or yeast topoisomerase I genes (hTOP1 or yTOP1, respectively) under the control of the inducible GAL promoter (see, for example, Knab, et al., Journal of Biological Chemistry 268: 22322–30 (1993); and Knab, et al., Journal of Biological Chemistry 270: 6141–8 (1995)) were used. Additionally, the sensitivity of yeast overexpressing the Topo I-VAC mutant enzyme, containing two amino acid substitutions (htop1-vac and ytop1-vac) that render topoisomerase I insensitive to the action of camptothecin were also examined (see, for example, Knab, et al., Journal of Biological Chemistry 268: 22322–30 (1993); and Knab, et al., Journal of Biological Chemistry 270: 6141–8 (1995)).

[2] = target: T1, yeast Topo I (Saccharomyces cerevisiae, UniProt P04786); test: as above; format: cell-based; conditions: GAL promoter, galactose-induced, vs vector
T1 construct: expressed in transfected cells; host or cells: S. cerevisiae BY4705 (S288C background), plasmid pyTOP1 under the GAL promoter, vector pRS416
T1 sequence (P04786 1-769): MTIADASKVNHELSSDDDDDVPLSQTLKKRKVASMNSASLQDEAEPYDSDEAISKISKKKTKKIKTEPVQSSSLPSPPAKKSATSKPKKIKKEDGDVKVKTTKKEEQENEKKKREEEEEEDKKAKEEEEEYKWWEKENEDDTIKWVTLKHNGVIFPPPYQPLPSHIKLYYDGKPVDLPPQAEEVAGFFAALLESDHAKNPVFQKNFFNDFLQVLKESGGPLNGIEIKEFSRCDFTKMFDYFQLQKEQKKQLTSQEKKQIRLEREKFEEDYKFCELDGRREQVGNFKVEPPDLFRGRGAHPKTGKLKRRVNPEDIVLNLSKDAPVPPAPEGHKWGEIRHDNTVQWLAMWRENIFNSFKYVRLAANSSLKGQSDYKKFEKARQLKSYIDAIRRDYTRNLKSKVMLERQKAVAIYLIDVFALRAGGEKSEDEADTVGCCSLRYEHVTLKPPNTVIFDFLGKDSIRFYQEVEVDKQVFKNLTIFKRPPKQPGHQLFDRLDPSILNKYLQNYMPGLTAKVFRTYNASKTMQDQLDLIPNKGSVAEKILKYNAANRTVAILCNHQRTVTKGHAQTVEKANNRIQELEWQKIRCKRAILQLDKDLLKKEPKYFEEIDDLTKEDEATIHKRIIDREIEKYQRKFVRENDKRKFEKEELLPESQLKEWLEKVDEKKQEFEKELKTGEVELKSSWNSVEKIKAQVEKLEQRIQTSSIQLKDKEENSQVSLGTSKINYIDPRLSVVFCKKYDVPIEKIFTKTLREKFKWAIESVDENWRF
Description: as §1, §2, §3

Row | Compound | toxicity in yeast overexpressing yTOP1-vac compared to vector control, cell survival by colony formation ([1]; colony formation after treatment) | effect of ytop1-vac (camptothecin-resistant mutant) overexpression on toxicity ([1]; relative OD660) | effect of yTOP1 overexpression on toxicity [2]
1 | O=c1c(Cl)c(Cl)cnn1CCCl [compound IIa] | is accentuated | effective with both yTOP1 and ytop1-vac | accentuates the toxicity
2 | O=C(CCl)Nc1ccc(C(=O)N/N=C/c2ccc(Cl)cc2)cc1 [compound Ia] | – | – | Little or no accentuation
